The values below come from patent US7235256B2, “Method of preventing parturient hypocalcemia in animals and compositions used therein” (RJ Innovation, priority 1999, dated 2007).

For assay [1], the system named is non-lactating (dry) cows. The assay can be described thus: EDTA-infusion test for resistance to hypocalcemia. It counts as in vivo, cow. The conditions noted are these: 8 EDTA-tests at 10 days intervals, normal = ionised blood calcium above 1 mmol/l. The source says:
To investigate the induction of hypocalcemia by intravenous infusion of EDTA in cows, 6 non-lactating (dry) cows were used in this study. Three of these cows were untreated (cow Nos. 168, 169 and 170) and the other three cows (cow Nos. 172, 175 and 176) had been subjected to a pre-treatment consisting of daily doses of anionic salts (Wang and Beede, 1992). This pre-treatment is known to be effective in preventing milk fever. The latter cows were rumen fistulated to facilitate precise daily dosages of the anionic salts.
All cows were tested for resistance to hypocalcemia by the EDTA-infusion technique. A total of 8 EDTA-tests were performed per cow according to the standardised method of Mellau et al. (1998), at 10 days intervals. With the standardised test, infusion of EDTA was performed until the cow went down involuntarily, due to muscle weakness caused by the induced hypocalcemia. The time taken from this point and until the cow regained normal blood calcium concentration, which is defined as an ionised blood calcium value above 1 mmol/l, was recorded. This time is considered to represent the cows' calcium mobilisation rate and therefore also the cows' ability to resist hypocalcemia. The infusion periods varied between individual cows, but were typically in the range of 2–4 hours. […]

Assay [2] has as its system dairy cows. Put plainly: Repeated oral zinc oxide administration, serum calcium response. The conditions noted are these: lactating cows. It counts as in vivo, cow. As to the method: Six dairy cows were used in this study: Two lactating cows and two dry cows were treated with zinc oxide by mouth at 120 mg/kg body weight, whereas two lactating cows served as untreated controls. Four doses of zinc oxide were given to the treated cows at one-week intervals. Venous blood samples were taken and serum stored at −37° C. for later total calcium determinations. For this purpose blood samples were taken daily from all six cows one hour after morning feeding. Extra samples were taken 5, 11, 23 and 35 hours after zinc oxide administration.

Where [3] appears, read: zinc oxide by mouth 120 mg/kg body weight.

Each structure is given as a SMILES string.

In the case of `O=C(O)CN(CCN(CC(=O)O)CC(=O)O)CC(=O)O` [EDTA, ethylenediaminetetraacetic acid], the “time to regain normal blood calcium concentration (recovery time) after EDTA infusion” value in assay [1] was “greatly improved”.

Consider `[O]=[Zn]` [zinc oxide], for which the “change of calcium balance response with number of doses” value in assay [2] (four doses at one-week intervals) is “less and less affected”. In assay [2] (setting [3]), the “minimum serum calcium concentration” value was 1.4 to 1.6 mmol/L and the “time of minimum serum calcium after administration” value is reported as “about 24 hours”.
